According to patent publication US9193731B2, “Antimicrobial compounds and methods of making and using the same” (Melinta Therapeutics, Inc., priority 2009, dated 2015):

system: Escherichia coli strain ATCC25922; assay: standard microdilution assay to determine minimum inhibitory concentrations (MICs); type: cell-based; details: Escherichia coli strain ATCC25922, microdilution
Summary of the method: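 E. coli strain ATCC25922 tested per CLSI microdilution methodology (about 100 microliters per well) to find minimum inhibitory concentrations. Activity scored categorically at a 16 micrograms/ml threshold.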

Compound | E. coli ATCC25922 MIC
COc1ccc(NCCCS(=O)(=O)c2ccc(-c3cc4cn(-c5ccc(CNCCCN=C(N)N)cc5)c(=O)nc4[nH]3)cc2)cc1 [Compound 1250] | − (a “−” indicates that the compound has an MIC value greater than 16 micrograms/ml)
CNCc1ccc(-n2cc3cc(-c4ccc(S(=O)(=O)N(CCCc5ccc(F)cc5)C5CCNCC5)cc4)[nH]c3nc2=O)cc1 [Compound 1062] | − (a “−” indicates that the compound has an MIC value greater than 16 micrograms/ml)
N=C(N)NCCCNCc1ccc(-n2cc3cc(-c4ccc(S(=O)(=O)N(CCCN5CCCCC5)C5CCNCC5)cc4)[nH]c3nc2=O)cc1 [Compound 839] | + (a “+” indicates that the compound has an MIC value of 16 micrograms/ml or less)
N=C(N)NCCCNC(=O)c1ccc(-n2cc3cc(-c4ccc(S(=O)(=O)NC5CCNCC5)cc4)[nH]c3nc2=O)cc1 [Compound 893] | + (a “+” indicates that the compound has an MIC value of 16 micrograms/ml or less)
N=C(N)NCCCNCc1ccc(-n2cc3cc(-c4cc(OCC(F)CN)cc(N5CCOCC5)c4)[nH]c3nc2=O)cc1 (stereo not shown) [Compound 2013a] | + (a “+” indicates that the compound has an MIC value of 16 micrograms/ml or less)
COCCOCCN(C1CCNCC1)S(=O)(=O)c1ccc(-c2cc3cn(-c4ccc(CNCCCNC(=N)N)cc4)c(=O)nc3[nH]2)cc1 [Compound 802] | + (a “+” indicates that the compound has an MIC value of 16 micrograms/ml or less)
N=C(N)NCCCNCc1ccc(-n2cc3cc(-c4cccc(OCC(F)CN)c4)[nH]c3nc2=O)cc1 (stereo not shown) [Compound 1390] | + (a “+” indicates that the compound has an MIC value of 16 micrograms/ml or less)
N=C(N)NCCCNC(=O)c1ccc(-n2cc3cc(-c4ccc(S(=O)(=O)N(CCOc5ccc(F)cc5)C5CCNCC5)cc4)[nH]c3nc2=O)cc1 [Compound 1093] | + (a “+” indicates that the compound has an MIC value of 16 micrograms/ml or less)
N=C(N)NCCCNCc1ccc(-n2cc3cc(-c4cc(C(=O)N5Cc6ccccc6C5)cc(N5CCNCC5)c4)[nH]c3nc2=O)cc1 [Compound 981] | + (a “+” indicates that the compound has an MIC value of 16 micrograms/ml or less)
CC(C)(C)NCC(=O)Nc1ccc(-c2cc3cn(-c4ccc(CNCCCN=C(N)N)cc4)c(=O)nc3[nH]2)cc1 [Compound 1218] | + (a “+” indicates that the compound has an MIC value of 16 micrograms/ml or less)
N=C(N)NCCCNCc1ccc(-n2cc3cc(-c4cc(C(=O)Nc5ccc(F)cn5)cc(N5CCNCC5)c4)[nH]c3nc2=O)cc1 [Compound 994] | + (a “+” indicates that the compound has an MIC value of 16 micrograms/ml or less)
NCCCCOc1ccc(-c2cn3cc(-c4ccc(C(=O)N5CCNCC5)cc4)[nH]c3nc2=O)cc1 [Compound 847] | − (a “−” indicates that the compound has an MIC value greater than 16 micrograms/ml)
CC(=O)NCCN(C1CCNCC1)S(=O)(=O)c1cccc(-c2cc3cn(-c4ccc(CNCCCN=C(N)N)cc4)c(=O)nc3[nH]2)c1 [Compound 1243] | + (a “+” indicates that the compound has an MIC value of 16 micrograms/ml or less)
CC(C)(CN)COc1cccc(-c2cc3cn(-c4ccc(CNCCCNC(=N)N)c(F)c4)c(=O)nc3[nH]2)c1 [Compound 1361] | + (a “+” indicates that the compound has an MIC value of 16 micrograms/ml or less)
N=C(N)NCCCNCc1ccc(-n2cc3cc(-c4ccc(OC(F)(F)F)c(CCCCN)c4)[nH]c3nc2=O)cc1 [Compound 2072a] | + (a “+” indicates that the compound has an MIC value of 16 micrograms/ml or less)
N[C@@H]1CCCN(Cc2ccc(-n3cc4cc(-c5ccc(S(=O)(=O)NC6CCNCC6)cc5)[nH]c4nc3=O)cc2)C1 [Compound 1120] | − (a “−” indicates that the compound has an MIC value greater than 16 micrograms/ml)
NCCCNCc1ccc(-n2cc3cc(-c4cc(C(=O)N5CCC(C(N)=O)CC5)cc(N5CCNCC5)c4)[nH]c3nc2=O)cc1 [Compound 910] | − (a “−” indicates that the compound has an MIC value greater than 16 micrograms/ml)
N=C(N)NCC(O)CNCc1ccc(-n2cc3cc(-c4ccc(S(=O)(=O)NC5CNC5)cc4)[nH]c3nc2=O)cc1 (stereo not shown) [Compound 1416] | + (a “+” indicates that the compound has an MIC value of 16 micrograms/ml or less)
N=C(N)NCCCNCc1ccc(-n2cc3cc(-c4cc(CCCCN)cc([S+]([O-])C(F)(F)F)c4)[nH]c3nc2=O)cc1 (stereo not shown) [Compound 2054a] | + (a “+” indicates that the compound has an MIC value of 16 micrograms/ml or less)
NC(N)=NCCC(=O)NCc1ccc(-n2cc3cc(-c4ccc(S(=O)(=O)N(Cc5ccccc5SC(F)(F)F)C5CCNCC5)cc4)[nH]c3nc2=O)cc1 [Compound 1205] | − (a “−” indicates that the compound has an MIC value greater than 16 micrograms/ml)
NCCCNC(=O)c1ccc(-n2cc3cc(-c4ccc(S(=O)(=O)NC5CCNCC5)cc4)[nH]c3nc2=O)cc1OCC1CCNCC1 [Compound 1241] | − (a “−” indicates that the compound has an MIC value greater than 16 micrograms/ml)

same assay, conditions: Escherichia coli, ATCC25922, Escherichia coli strain ATCC25922, microdilution; read-out: E. coli ATCC25922 MIC

MIC | Compound
> 16 µg/mL | NCc1ccc(-n2cc3cc(-c4ccc(S(=O)(=O)N(CCCN5CCc6ccccc65)C5CCNCC5)cc4)[nH]c3nc2=O)cc1 [Compound 1067]
> 16 µg/mL | CC(=O)NCCN(C1CCNCC1)S(=O)(=O)c1cccc(-c2cc3cn(-c4ccc(CN)cc4)c(=O)nc3[nH]2)c1 [Compound 1224]
< 16 µg/mL | N=C(N)NCCCNCc1ccc(-c2cn3cc(-c4ccc(C(=O)N5CCNCC5)cc4)[nH]c3nc2=O)cc1 [Compound 683]
> 16 µg/mL | N=C(N)NCCCNCc1ccc(-c2cn3cc(-c4ccc(C(=O)N5CCN(c6ncccn6)CC5)cc4)[nH]c3nc2=O)cc1 [Compound 721]
> 16 µg/mL | NCCCNCc1ccc(-c2cn3cc(-c4ccc(S(=O)(=O)N5CCN(C(=O)OCc6ccccc6)CC5)cc4)[nH]c3nc2=O)cc1 [Compound 791]
< 16 µg/mL | CS(=O)(=O)c1ccc(-c2cn3cc(-c4ccc(CN(CCCN)CCCNC(=N)N)cc4)c(=O)nc3[nH]2)cc1 [Compound 635]
> 16 µg/mL | NCCCNCc1ccc(-n2cc3cc(CCC(=O)N4CC[C@H](F)C4)[nH]c3nc2=O)cc1 [Compound 298]
> 16 µg/mL | O=C(NC1CCNCC1)c1ccc(-c2cc3cn(-c4ccc(CNCCCCl)cc4)c(=O)nc3[nH]2)c(F)c1 [Compound 253]
> 16 µg/mL | NCCCN(CCCN)Cc1ccc(-n2cc3cc(-c4ccc(F)cc4)[nH]c3nc2=O)cc1 [Compound 180]
> 16 µg/mL | CNCc1ccc(-n2cc3cc(-c4ccc(S(=O)(=O)N(CCCN5CCCC(O)C5)C5CCNCC5)cc4)[nH]c3nc2=O)cc1 (stereo not shown) [Compound 1079]
> 16 µg/mL | CNCCOc1ccccc1-c1cc2cn(-c3ccc(CN)cc3)c(=O)nc2[nH]1 [Compound 1129]
> 16 µg/mL | NCc1ccc(-n2cc3cc(-c4ccc(S(=O)(=O)N(CCCc5ccc(O)cc5)C5CCNCC5)cc4)[nH]c3nc2=O)cc1 [Compound 1081]
< 16 µg/mL | NCCCN(CCCN)Cc1ccc(-n2cc3cc(-c4ccc(C(=O)NC5CCNCC5)cc4)[nH]c3nc2=O)cc1 [Compound 197]
> 16 µg/mL | NCCCN1CCC(c2cn3cc(-c4ccc(F)cc4)[nH]c3nc2=O)CC1 [Compound 567]
> 16 µg/mL | N=C(N)NCCCNCc1ccc(-n2cc3cc(CCN4CCS(=O)(=O)CC4)[nH]c3nc2=O)cc1 [Compound 785]
> 16 µg/mL | CCOCCOc1cccc(-c2cc3cn(-c4ccc(CN)cc4)c(=O)nc3[nH]2)c1 [Compound 1121]
